# Laboratory results from ChEMBL document CHEMBL2021863, “Design and synthesis of new 4-pyrazolin-3-yl-1,2,3-triazoles and 1,2,3-triazol-4-yl-pyrazolin-1-ylthiazoles as potential antimicrobial agents” (2012).
# Test system: Priestia megaterium
# Assay: Antimicrobial activity against Bacillus megaterium ATCC 9885 after 24 hrs by two-fold serial dilution method
# Format: functional
# Settings: ATCC 9885, 24 h
row,Compound,MIC [µg/mL]
1,Cc1ccc(-n2nnc(C3=NN(C4=NC(=O)CS4)C(c4ccc(F)cc4)C3)c2C)cc1 (stereo unspecified),8.25
2,Cc1ccc(-n2nnc(C(=O)/C=C/c3ccc(F)cc3)c2C)cc1,16.5
3,Cc1ccc(-n2nnc(C(=O)/C=C/c3ccc(N4CCCCC4)cc3)c2C)cc1,33
4,Cc1ccc(-n2nnc(C3=NNC(c4ccccc4)C3)c2C)cc1 (stereo unspecified),132
5,Cc1ccc(-n2nnc(C3=NN(C(=S)Nc4ccccc4)C(c4ccccc4)C3)c2C)cc1 (stereo unspecified),8.25

# Test system: Escherichia coli
# Assay: Antimicrobial activity against Escherichia coli ATCC 25922 after 24 hrs by two-fold serial dilution method
# Format: functional
# Settings: ATCC 25922, 24 h
row,Compound,MIC [µg/mL]
1,Cc1ccc(-n2nnc(C3=NN(C4=NC(=O)CS4)C(c4ccc(F)cc4)C3)c2C)cc1 (stereo unspecified),8.25
2,Cc1ccc(-n2nnc(C(=O)/C=C/c3ccc(N4CCCCC4)cc3)c2C)cc1,8.25
3,Cc1ccc(-n2nnc(C3=NNC(c4ccccc4)C3)c2C)cc1 (stereo unspecified),132
4,Cc1ccc(-n2nnc(C3=NN(C(=S)Nc4ccccc4)C(c4ccccc4)C3)c2C)cc1 (stereo unspecified),8.25

# Test system: Priestia megaterium
# Assay: Antimicrobial activity against Bacillus megaterium ATCC 9885 at 100 ug/ml after 24 hrs by agar well diffusion assay
# Format: functional
# Settings: ATCC 9885, 24 h, read-out: DIZ
row,Compound,zone of inhibition at 100 µg/mL [mm]
1,Cc1ccc(-n2nnc(C3=NN(C4=NC(=O)CS4)C(c4ccc(F)cc4)C3)c2C)cc1 (stereo unspecified),30
2,Cc1ccc(-n2nnc(C(=O)/C=C/c3ccc(F)cc3)c2C)cc1,24
3,Cc1ccc(-n2nnc(C(=O)/C=C/c3ccc(N4CCCCC4)cc3)c2C)cc1,20
4,Cc1ccc(-n2nnc(C3=NNC(c4ccccc4)C3)c2C)cc1 (stereo unspecified),16
5,Cc1ccc(-n2nnc(C3=NN(C(=S)Nc4ccccc4)C(c4ccccc4)C3)c2C)cc1 (stereo unspecified),24

# Test system: Escherichia coli
# Assay: Antimicrobial activity against Escherichia coli ATCC 25922 at 100 ug/ml after 24 hrs by agar well diffusion assay
# Format: functional
# Settings: ATCC 25922, 24 h, read-out: DIZ
row,Compound,zone of inhibition at 100 µg/mL [mm]
1,Cc1ccc(-n2nnc(C3=NN(C4=NC(=O)CS4)C(c4ccc(F)cc4)C3)c2C)cc1 (stereo unspecified),28
2,Cc1ccc(-n2nnc(C(=O)/C=C/c3ccc(N4CCCCC4)cc3)c2C)cc1,28
3,Cc1ccc(-n2nnc(C3=NNC(c4ccccc4)C3)c2C)cc1 (stereo unspecified),16

# Test system: Bacillus subtilis
# Assay: Antimicrobial activity against Bacillus subtilis ATCC 6633 after 24 hrs by two-fold serial dilution method
# Format: functional
# Settings: ATCC 6633, 24 h
row,Compound,MIC [µg/mL]
1,Cc1ccc(-n2nnc(C(=O)/C=C/c3ccc(F)cc3)c2C)cc1,16.5
2,Cc1ccc(-n2nnc(C(=O)/C=C/c3ccc(N4CCCCC4)cc3)c2C)cc1,33
3,Cc1ccc(-n2nnc(C3=NNC(c4ccccc4)C3)c2C)cc1 (stereo unspecified),8.25

# Test system: Staphylococcus aureus
# Assay: Antimicrobial activity against Staphylococcus aureus ATCC 29213 after 24 hrs by two-fold serial dilution method
# Format: functional
# Settings: ATCC 29213, 24 h
row,Compound,MIC [µg/mL]
1,Cc1ccc(-n2nnc(C(=O)/C=C/c3ccc(F)cc3)c2C)cc1,16.5
2,Cc1ccc(-n2nnc(C(=O)/C=C/c3ccc(N4CCCCC4)cc3)c2C)cc1,132
3,Cc1ccc(-n2nnc(C3=NNC(c4ccccc4)C3)c2C)cc1 (stereo unspecified),8.25
4,Cc1ccc(-n2nnc(C3=NN(C(=S)Nc4ccccc4)C(c4ccccc4)C3)c2C)cc1 (stereo unspecified),8.25

# Test system: Pseudomonas aeruginosa
# Assay: Antimicrobial activity against Pseudomonas aeruginosa ATCC 27953 at 100 ug/ml after 24 hrs by agar well diffusion assay
# Format: functional
# Settings: ATCC 27953, 24 h, read-out: DIZ
row,Compound,zone of inhibition at 100 µg/mL [mm]
1,Cc1ccc(-n2nnc(C3=NN(C4=NC(=O)CS4)C(c4ccc(F)cc4)C3)c2C)cc1 (stereo unspecified),20
2,Cc1ccc(-n2nnc(C(=O)/C=C/c3ccc(F)cc3)c2C)cc1,16
3,Cc1ccc(-n2nnc(C(=O)/C=C/c3ccc(N4CCCCC4)cc3)c2C)cc1,16
4,Cc1ccc(-n2nnc(C3=NNC(c4ccccc4)C3)c2C)cc1 (stereo unspecified),28
5,Cc1ccc(-n2nnc(C3=NN(C(=S)Nc4ccccc4)C(c4ccccc4)C3)c2C)cc1 (stereo unspecified),24

# Test system: Klebsiella pneumoniae
# Assay: Antimicrobial activity against Klebsiella pneumoniae ATCC 13883 after 24 hrs by two-fold serial dilution method
# Format: functional
# Settings: ATCC 13883, 24 h
row,Compound,MIC [µg/mL]
1,Cc1ccc(-n2nnc(C(=O)/C=C/c3ccc(F)cc3)c2C)cc1,132
2,Cc1ccc(-n2nnc(C3=NN(C(=S)Nc4ccccc4)C(c4ccccc4)C3)c2C)cc1 (stereo unspecified),16.5

# Test system: Klebsiella pneumoniae
# Assay: Antimicrobial activity against Klebsiella pneumoniae ATCC 13883 at 100 ug/ml after 24 hrs by agar well diffusion assay
# Format: functional
# Settings: ATCC 13883, 24 h, read-out: DIZ
row,Compound,zone of inhibition at 100 µg/mL [mm]
1,Cc1ccc(-n2nnc(C(=O)/C=C/c3ccc(F)cc3)c2C)cc1,16
2,Cc1ccc(-n2nnc(C3=NN(C(=S)Nc4ccccc4)C(c4ccccc4)C3)c2C)cc1 (stereo unspecified),18

# Test system: Bacillus subtilis
# Assay: Antimicrobial activity against Bacillus subtilis ATCC 6633 at 100 ug/ml after 24 hrs by agar well diffusion assay
# Format: functional
# Settings: ATCC 6633, 24 h, read-out: DIZ
row,Compound,zone of inhibition at 100 µg/mL [mm]
1,Cc1ccc(-n2nnc(C(=O)/C=C/c3ccc(F)cc3)c2C)cc1,26
2,Cc1ccc(-n2nnc(C(=O)/C=C/c3ccc(N4CCCCC4)cc3)c2C)cc1,18
3,Cc1ccc(-n2nnc(C3=NNC(c4ccccc4)C3)c2C)cc1 (stereo unspecified),32
4,Cc1ccc(-n2nnc(C3=NN(C(=S)Nc4ccccc4)C(c4ccccc4)C3)c2C)cc1 (stereo unspecified),26

# Test system: Saccharomyces cerevisiae
# Assay: Antifungal activity against Saccharomyces cerevisiae by two-fold serial dilution method
# Format: functional
# Settings: not given
row,Compound,MIC [µg/mL]
1,Cc1ccc(-n2nnc(C3=NN(C4=NC(=O)CS4)C(c4ccc(F)cc4)C3)c2C)cc1 (stereo unspecified),66
2,Cc1ccc(-n2nnc(C(=O)/C=C/c3ccc(F)cc3)c2C)cc1,16.5
3,Cc1ccc(-n2nnc(C(=O)/C=C/c3ccc(N4CCCCC4)cc3)c2C)cc1,66
4,Cc1ccc(-n2nnc(C3=NNC(c4ccccc4)C3)c2C)cc1 (stereo unspecified),8.25
5,Cc1ccc(-n2nnc(C3=NN(C(=S)Nc4ccccc4)C(c4ccccc4)C3)c2C)cc1 (stereo unspecified),16.5

# Test system: Staphylococcus aureus
# Assay: Antimicrobial activity against Staphylococcus aureus ATCC 29213 at 100 ug/ml after 24 hrs by agar well diffusion assay
# Format: functional
# Settings: ATCC 29213, 24 h, read-out: DIZ
row,Compound,zone of inhibition at 100 µg/mL [mm]
1,Cc1ccc(-n2nnc(C(=O)/C=C/c3ccc(F)cc3)c2C)cc1,20
2,Cc1ccc(-n2nnc(C(=O)/C=C/c3ccc(N4CCCCC4)cc3)c2C)cc1,16
3,Cc1ccc(-n2nnc(C3=NNC(c4ccccc4)C3)c2C)cc1 (stereo unspecified),34
4,Cc1ccc(-n2nnc(C3=NN(C(=S)Nc4ccccc4)C(c4ccccc4)C3)c2C)cc1 (stereo unspecified),18

# Test system: Candida albicans
# Assay: Antifungal activity against Candida albicans NRRL Y-477 at 100 ug/ml after 24 hrs by agar well diffusion assay
# Format: functional
# Settings: NRRL Y-477, 24 h, read-out: DIZ
row,Compound,zone of inhibition at 100 µg/mL [mm]
1,Cc1ccc(-n2nnc(C3=NN(C4=NC(=O)CS4)C(c4ccc(F)cc4)C3)c2C)cc1 (stereo unspecified),16
2,Cc1ccc(-n2nnc(C(=O)/C=C/c3ccc(F)cc3)c2C)cc1,22
3,Cc1ccc(-n2nnc(C(=O)/C=C/c3ccc(N4CCCCC4)cc3)c2C)cc1,18
4,Cc1ccc(-n2nnc(C3=NNC(c4ccccc4)C3)c2C)cc1 (stereo unspecified),28
5,Cc1ccc(-n2nnc(C3=NN(C(=S)Nc4ccccc4)C(c4ccccc4)C3)c2C)cc1 (stereo unspecified),24

# Test system: Candida albicans
# Assay: Antifungal activity against Candida albicans NRRL Y-477 by two-fold serial dilution method
# Format: functional
# Settings: not given
row,Compound,MIC [µg/mL]
1,Cc1ccc(-n2nnc(C3=NN(C4=NC(=O)CS4)C(c4ccc(F)cc4)C3)c2C)cc1 (stereo unspecified),132
2,Cc1ccc(-n2nnc(C(=O)/C=C/c3ccc(F)cc3)c2C)cc1,16.5
3,Cc1ccc(-n2nnc(C(=O)/C=C/c3ccc(N4CCCCC4)cc3)c2C)cc1,16.5
4,Cc1ccc(-n2nnc(C3=NNC(c4ccccc4)C3)c2C)cc1 (stereo unspecified),8.25
5,Cc1ccc(-n2nnc(C3=NN(C(=S)Nc4ccccc4)C(c4ccccc4)C3)c2C)cc1 (stereo unspecified),16.5

# Test system: Micrococcus luteus
# Assay: Antimicrobial activity against Sarcina lutea at 100 ug/ml after 24 hrs by agar well diffusion assay
# Format: functional
# Settings: read-out: DIZ
row,Compound,zone of inhibition at 100 µg/mL [mm]
1,Cc1ccc(-n2nnc(C3=NN(C4=NC(=O)CS4)C(c4ccc(F)cc4)C3)c2C)cc1 (stereo unspecified),16
2,Cc1ccc(-n2nnc(C(=O)/C=C/c3ccc(F)cc3)c2C)cc1,16
3,Cc1ccc(-n2nnc(C(=O)/C=C/c3ccc(N4CCCCC4)cc3)c2C)cc1,28
4,Cc1ccc(-n2nnc(C3=NNC(c4ccccc4)C3)c2C)cc1 (stereo unspecified),30
5,Cc1ccc(-n2nnc(C3=NN(C(=S)Nc4ccccc4)C(c4ccccc4)C3)c2C)cc1 (stereo unspecified),20

# Test system: Pseudomonas aeruginosa
# Assay: Antimicrobial activity against Pseudomonas aeruginosa ATCC 27953 after 24 hrs by two-fold serial dilution method
# Format: functional
# Settings: ATCC 27953, 24 h
row,Compound,MIC [µg/mL]
1,Cc1ccc(-n2nnc(C3=NN(C4=NC(=O)CS4)C(c4ccc(F)cc4)C3)c2C)cc1 (stereo unspecified),33
2,Cc1ccc(-n2nnc(C(=O)/C=C/c3ccc(F)cc3)c2C)cc1,132
3,Cc1ccc(-n2nnc(C(=O)/C=C/c3ccc(N4CCCCC4)cc3)c2C)cc1,132
4,Cc1ccc(-n2nnc(C3=NNC(c4ccccc4)C3)c2C)cc1 (stereo unspecified),8.25
5,Cc1ccc(-n2nnc(C3=NN(C(=S)Nc4ccccc4)C(c4ccccc4)C3)c2C)cc1 (stereo unspecified),132

# Test system: Saccharomyces cerevisiae
# Assay: Antifungal activity against Saccharomyces cerevisiae at 100 ug/ml after 24 hrs by agar well diffusion assay
# Format: functional
# Settings: read-out: DIZ
row,Compound,zone of inhibition at 100 µg/mL [mm]
1,Cc1ccc(-n2nnc(C3=NN(C4=NC(=O)CS4)C(c4ccc(F)cc4)C3)c2C)cc1 (stereo unspecified),18
2,Cc1ccc(-n2nnc(C(=O)/C=C/c3ccc(F)cc3)c2C)cc1,23
3,Cc1ccc(-n2nnc(C(=O)/C=C/c3ccc(N4CCCCC4)cc3)c2C)cc1,20
4,Cc1ccc(-n2nnc(C3=NNC(c4ccccc4)C3)c2C)cc1 (stereo unspecified),28
5,Cc1ccc(-n2nnc(C3=NN(C(=S)Nc4ccccc4)C(c4ccccc4)C3)c2C)cc1 (stereo unspecified),26

# Test system: Micrococcus luteus
# Assay: Antimicrobial activity against Sarcina lutea after 24 hrs by two-fold serial dilution method
# Format: functional
# Settings: not given
row,Compound,MIC [µg/mL]
1,Cc1ccc(-n2nnc(C3=NN(C4=NC(=O)CS4)C(c4ccc(F)cc4)C3)c2C)cc1 (stereo unspecified),132
2,Cc1ccc(-n2nnc(C(=O)/C=C/c3ccc(F)cc3)c2C)cc1,132
3,Cc1ccc(-n2nnc(C(=O)/C=C/c3ccc(N4CCCCC4)cc3)c2C)cc1,33
4,Cc1ccc(-n2nnc(C3=NNC(c4ccccc4)C3)c2C)cc1 (stereo unspecified),16.5
5,Cc1ccc(-n2nnc(C3=NN(C(=S)Nc4ccccc4)C(c4ccccc4)C3)c2C)cc1 (stereo unspecified),66
